This note sets out measurements from patent US9828379B2 (priority 2013, dated 2017).

What all share (assay): In vitro competitive activity-based protein profiling (Table 2, % inhibition at 1 μM)
Holding throughout (format): biochemical

In one assay the target is T1, ABHD6 (Mus musculus, UniProt Q8R2Y0).
T1 sequence (Q8R2Y0 1-336): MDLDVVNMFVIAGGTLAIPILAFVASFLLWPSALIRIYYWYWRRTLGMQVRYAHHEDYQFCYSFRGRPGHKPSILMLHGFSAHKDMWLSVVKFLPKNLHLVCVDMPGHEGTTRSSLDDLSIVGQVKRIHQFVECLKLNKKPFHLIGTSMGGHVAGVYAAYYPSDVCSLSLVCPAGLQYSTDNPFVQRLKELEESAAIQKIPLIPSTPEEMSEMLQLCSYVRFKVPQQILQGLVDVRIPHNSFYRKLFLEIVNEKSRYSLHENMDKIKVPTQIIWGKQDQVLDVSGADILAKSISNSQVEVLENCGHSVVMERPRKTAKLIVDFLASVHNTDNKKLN
As to conditions: read-out: % Inhibition at 1 μM ABHD6. On the procedure:
(§1) After 30 min, FP—Rh (1.0 μL, 50 μM in DMSO) was added and the mixture was incubated for another 30 min at 37° C. Reactions were quenched with SDS loading buffer (50 μL-4×) and run on SDS-PAGE. Following gel imaging, serine hydrolase activity was determined by measuring fluorescent intensity of gel bands corresponding to MAGL, ABHD6 and FAAH using ImageJ 1.43 u software.
(§2) hMAGL was expressed in HEK293T cells according to previously reported methods (see Niphakis, Long, and Blankman, J. L., et al. (2007) Chem. Biol. 14:1347-1356). Cell lysates were diluted with mock proteomes for use in competitive ABPP experiments.

The target of the next assay is T2, MAGL (Mus musculus, UniProt O35678).
T2 sequence (O35678 1-303): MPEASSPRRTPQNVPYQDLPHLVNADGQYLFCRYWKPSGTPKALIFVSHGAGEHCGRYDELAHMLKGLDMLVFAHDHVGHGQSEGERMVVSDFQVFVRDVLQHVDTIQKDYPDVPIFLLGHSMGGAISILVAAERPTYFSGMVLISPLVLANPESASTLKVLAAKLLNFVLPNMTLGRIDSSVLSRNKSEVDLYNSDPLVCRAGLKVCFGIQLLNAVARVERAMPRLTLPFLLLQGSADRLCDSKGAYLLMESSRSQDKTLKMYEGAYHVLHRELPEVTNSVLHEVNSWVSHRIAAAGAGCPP
As to conditions: read-out: % Inhibition at 1 μM MAGL. On the procedure:
After 30 min, FP—Rh (1.0 μL, 50 μM in DMSO) was added and the mixture was incubated for another 30 min at 37° C. Reactions were quenched with SDS loading buffer (50 μL-4×) and run on SDS-PAGE.
Cell lysates were diluted with mock proteomes for use in competitive ABPP experiments.

In the next assay the target is T3, FAAH (Mus musculus, UniProt O08914).
T3 sequence (O08914 1-579): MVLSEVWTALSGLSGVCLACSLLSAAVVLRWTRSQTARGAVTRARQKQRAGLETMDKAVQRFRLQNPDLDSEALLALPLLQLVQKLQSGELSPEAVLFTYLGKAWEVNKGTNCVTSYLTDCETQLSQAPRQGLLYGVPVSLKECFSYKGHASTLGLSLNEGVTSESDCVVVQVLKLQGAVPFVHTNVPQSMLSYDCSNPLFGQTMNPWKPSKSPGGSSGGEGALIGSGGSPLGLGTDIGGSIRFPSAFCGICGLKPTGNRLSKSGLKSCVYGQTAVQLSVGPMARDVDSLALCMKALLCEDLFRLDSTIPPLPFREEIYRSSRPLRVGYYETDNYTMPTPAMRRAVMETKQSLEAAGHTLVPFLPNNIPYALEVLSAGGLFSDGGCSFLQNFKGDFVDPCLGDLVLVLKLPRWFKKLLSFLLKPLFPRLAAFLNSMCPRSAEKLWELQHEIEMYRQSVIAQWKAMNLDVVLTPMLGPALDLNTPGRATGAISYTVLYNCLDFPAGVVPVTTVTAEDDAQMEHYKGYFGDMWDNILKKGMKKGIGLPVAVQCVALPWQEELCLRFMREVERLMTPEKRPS
As to conditions: read-out: % Inhibition at 1 μM FAAH. On the procedure:
as §1, §2

By inhibition is commonly meant the percentage by which the read-out fell short of the control. As to `O=C(ON1C(=O)CCC1=O)N1CC2CN(Cc3ccc(C(=O)N4CCC4)cc3F)CC2C1` (centres unmarked) [Example 168, 2,5-dioxopyrrolidin-1-yl5-(4-(azetidine-1-carbonyl)-2-fluorobenzyl)-hexahydropyrrolo[3,4-c]pyrrole-2(1H)-carboxylate], the inhibition at 1 µM at ABHD6 was less than 25%.

In the case of `O=C(ON1C(=O)CCC1=O)N1CC2CN(Cc3ccc(Cl)cc3N3Cc4cccnc4C3)CC2C1` (centres unmarked) [Example 107, 2,5-Dioxopyrrolidin-1-yl 5-[(4-chloro-2-[5H,6H,7H-pyrrolo[3,4-b]pyridin-6-yl]phenyl)methyl]-octahydropyrrolo[3,4-c]pyrrole-2-carboxylate], the inhibition at 1 µM on MAGL, on FAAH and at ABHD6 was 25 to 75% in each case.

Turning to `O=C(ON1C(=O)CCC1=O)N1CC2CN(Cc3ccc(Cl)cc3N3CCC(C(=O)N4CCCC4)CC3)CC2C1` (centres unmarked) [Example 111, 2,5-Dioxopyrrolidin-1-yl 5-[(4-chloro-2-[4-[(pyrrolidin-1-yl)carbonyl]piperidin-1-yl]phenyl)methyl]-octahydropyrrolo[3,4-c]pyrrole-2-carboxylate], the inhibition at 1 µM on MAGL was 25 to 75%; on FAAH, less than 25%; on ABHD6, less than 25%.

With `O=C(ON1C(=O)CCC1=O)N1CC2CN(Cc3ccc(Cl)cc3N3CCn4ncnc4C3)CC2C1` (centres unmarked) [Example 108, 2,5-Dioxopyrrolidin-1-yl 5-(4-chloro-2-(5,6-dihydro-[1,2,4]triazolo[1,5-a]pyrazin-7(8H)-yl)benzyl)-hexahydropyrrolo[3,4-c]pyrrole-2(1H)-carboxylate], the inhibition at 1 µM on MAGL, on FAAH and at ABHD6 was less than 25% throughout.

In the case of `O=C(ON1C(=O)CCC1=O)N1CC2CN(Cc3ccc(Cl)cc3N3CCC3)CC2C1` (centres unmarked) [Example 113, 2,5-Dioxopyrrolidin-1-yl 5-[[2-(azetidin-1-yl)-4-chlorophenyl]methyl]-octahydropyrrolo[3,4-c]pyrrole-2-carboxylate], the inhibition at 1 µM at MAGL was more than 75%; at FAAH it was less than 25%; at ABHD6, 25 to 75%.

With `O=C(ON1C(=O)CCC1=O)N1CC2CN(Cc3ccc(F)cc3N3CCCC3)CC2C1` (centres unmarked) [Example 90, 2,5-Dioxopyrrolidin-1-yl 5-[[4-fluoro-2-(pyrrolidin-1-yl)phenyl]methyl]-octahydropyrrolo[3,4-c]pyrrole-2-carboxylate], the inhibition at 1 µM is 25 to 75% on MAGL, 25 to 75% at FAAH and less than 25% at ABHD6.

As for `CC(=O)N1CCC(c2nn(C(C)C)cc2CN2CC3CN(C(=O)ON4C(=O)CCC4=O)CC3C2)CC1` (centres unmarked) [Example 119, 2,5-Dioxopyrrolidin-1-yl 5-[[3-(1-acetylpiperidin-4-yl)-1-(propan-2-yl)-1H-pyrazol-4-yl]methyl]-octahydropyrrolo[3,4-c]pyrrole-2-carboxylate], the inhibition at 1 µM on MAGL, at FAAH and at ABHD6 was less than 25% each time.

On to `CC(=O)N1CCN(c2cccc(CN3CC4CN(C(=O)ON5C(=O)CCC5=O)CC4C3)c2C)CC1` (centres unmarked) [Example 143, 2,5-dioxopyrrolidin-1-yl 5-[[3-(4-acetylpiperazin-1-yl)-2-methylphenyl]methyl]-octahydropyrrolo[3,4-c]pyrrole-2-carboxylate], for which the inhibition at 1 µM on MAGL, at FAAH and at ABHD6 was less than 25% each time.

On to `CC(C)n1cc(CN2CC3CN(C(=O)ON4C(=O)CCC4=O)CC3C2)c(-c2ccccc2Cl)n1` (centres unmarked) [Example 118, 2,5-Dioxopyrrolidin-1-yl 5-[[3-(2-chlorophenyl)-1-(propan-2-yl)-1H-pyrazol-4-yl]methyl]-octahydropyrrolo[3,4-c]pyrrole-2-carboxylate], for which the inhibition at 1 µM was 25 to 75% at MAGL, less than 25% on FAAH and 25 to 75% at ABHD6.

On to `CC(C)c1cc(CN2CC3CN(C(=O)ON4C(=O)CCC4=O)CC3C2)n(C2CCOCC2)n1` (centres unmarked) [Example 124, 2,5-Dioxopyrrolidin-1-yl 5-[[1-(oxan-4-yl)-3-(propan-2-yl)-1H-pyrazol-5-yl]methyl]-octahydropyrrolo[3,4-c]pyrrole-2-carboxylate], for which the inhibition at 1 µM at MAGL was 25 to 75%; at FAAH, less than 25%; on ABHD6, less than 25%.

With `CC(=O)N1CCC(c2nn(C)cc2CN2CC3CN(C(=O)ON4C(=O)CCC4=O)CC3C2)CC1` (centres unmarked) [Example 116, 2,5-Dioxopyrrolidin-1-yl 5-[[3-(1-acetylpiperidin-4-yl)-1-methyl-1H-pyrazol-4-yl]methyl]-octahydropyrrolo[3,4-c]pyrrole-2-carboxylate], the inhibition at 1 µM on MAGL, at FAAH and on ABHD6 was less than 25% each time.

`CCN1CCN(c2cccc(CN3CC4CN(C(=O)ON5C(=O)CCC5=O)CC4C3)c2C)CC1` (centres unmarked) [Example 146]: the inhibition at 1 µM at MAGL is 25 to 75%; on FAAH, less than 25%; at ABHD6 it was less than 25%.

Turning to `CS(=O)(=O)N1CCN(c2cc(Cl)ccc2CN2CC3CN(C(=O)ON4C(=O)CCC4=O)CC3C2)CC1` (centres unmarked) [Example 110, 2,5-Dioxopyrrolidin-1-yl 5-[[4-chloro-2-(4-methanesulfonylpiperazin-1-yl)phenyl]methyl]-octahydropyrrolo[3,4-c]pyrrole-2-carboxylate], the inhibition at 1 µM at MAGL, at FAAH and on ABHD6 was less than 25% in each case.

`CC1COCCN1c1cc(F)ccc1CN1CC2CN(C(=O)ON3C(=O)CCC3=O)CC2C1` (centres unmarked) [Example 91, 2,5-Dioxopyrrolidin-1-yl 5-[[4-fluoro-2-(3-methylmorpholin-4-yl)phenyl]methyl]-octahydropyrrolo[3,4-c]pyrrole-2-carboxylate]: the inhibition at 1 µM on MAGL, at FAAH and on ABHD6 was less than 25% each time.

On to `CC(=O)N1CCN(c2cc(F)ccc2CN2CC3CN(C(=O)ON4C(=O)CCC4=O)CC3C2)CC1` (centres unmarked) [Example 92, 2,5-Dioxopyrrolidin-1-yl 5-[[2-(4-acetylpiperazin-1-yl)-4-fluorophenyl]methyl]-octahydropyrrolo[3,4-c]pyrrole-2-carboxylate], for which the inhibition at 1 µM at MAGL, at FAAH and at ABHD6 was less than 25% each time.

Turning to `O=C(ON1C(=O)CCC1=O)N1CC2CN(Cc3ccc(F)cc3N3CCOCC3)CC2C1` (centres unmarked) [Example 89, 2,5-Dioxopyrrolidin-1-yl 5-[[4-fluoro-2-(morpholin-4-yl)phenyl]methyl]-octahydropyrrolo[3,4-c]pyrrole-2-carboxylate], the inhibition at 1 µM on MAGL, at FAAH and at ABHD6 was less than 25% each time.

Consider `CC(=O)N1CCN(c2cc(Cl)ccc2CN2CC3CN(C(=O)ON4C(=O)CCC4=O)CC3C2)CC1` (centres unmarked) [Example 96, 2,5-Dioxopyrrolidin-1-yl 5-[[2-(4-acetylpiperazin-1-yl)-4-chlorophenyl]methyl]-octahydropyrrolo[3,4-c]pyrrole-2-carboxylate], for which the inhibition at 1 µM at MAGL, at FAAH and on ABHD6 was less than 25% in each case.

In the case of `O=C(ON1C(=O)CCC1=O)N1CC2CN(Cc3ccc(C(=O)N4CCCC4)cc3F)CC2C1` (centres unmarked) [Example 167, 2,5-dioxopyrrolidin-1-yl5-(2-fluoro-4-(pyrrolidine-1-carbonyl)benzyl)-hexahydropyrrolo[3,4-c]pyrrole-2(1H)-carboxylate], the inhibition at 1 µM at ABHD6 is less than 25%.
